Laboratory results from PubChem BioAssay AID1963860 (Molecular Pharmacology Branch, DTP, NCI, 2024).

System: CN0375-F725-PDC KRAS spheroid viability
Experiment: Anticancer human tumor CN0375-F725-PDC patient-derived colon carcinoma cell line growth inhibition [KRAS2]
Details: spheroids with HUVEC and MSC; for IC50: curve of first compound; for viability, T/C: stronger effect = lower value
Outline: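 Combination screen of spheroid viability in tumor-cell co-cultures with endothelial (HUVEC) and mesenchymal stem cell stroma. Each agent was tested in half-log dilutions, topping at clinical Cmax or at 10 microM without a known Cmax.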
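Note: spheroids exposed to agents for 7 days.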

CC1(C)CCC(CN2CCN(c3ccc(C(=O)NS(=O)(=O)c4ccc(NCC5CCOCC5)c([N+](=O)[O-])c4)c(Oc4cnc5[nH]ccc5c4)c3)CC2)=C(c2ccc(Cl)cc2)C1 + C=CC(=O)N1CCN(c2nc(=O)n(-c3c(C)ccnc3C(C)C)c3nc(-c4c(O)cccc4F)c(F)cc23)C(C)C1
IC50 (second compound 0.1 µM): 4.27 µM
IC50 (second compound 0.316 µM): 4.49 µM
IC50 (second compound 1 µM): 3.48 µM
IC50 (second compound 3.16 µM): 6.6 µM
IC50 (second compound 10 µM): 6.28 µM
viability, T/C (second compound 0.1 µM, first compound 0.0316 µM): 112%
viability, T/C (second compound 0.1 µM, first compound 0.1 µM): 113%
viability, T/C (second compound 0.1 µM, first compound 0.316 µM): 105%
viability, T/C (second compound 0.1 µM, first compound 1 µM): 105%
viability, T/C (second compound 0.1 µM, first compound 3.16 µM): 56.9%
viability, T/C (second compound 0.1 µM, first compound 10 µM): 30.4%
viability, T/C (second compound 0.316 µM, first compound 0.0316 µM): 110%
viability, T/C (second compound 0.316 µM, first compound 0.1 µM): 115%
viability, T/C (second compound 0.316 µM, first compound 0.316 µM): 106%
viability, T/C (second compound 0.316 µM, first compound 1 µM): 108%
viability, T/C (second compound 0.316 µM, first compound 3.16 µM): 58.7%
viability, T/C (second compound 0.316 µM, first compound 10 µM): 30.2%
viability, T/C (second compound 1 µM, first compound 0.0316 µM): 110%
viability, T/C (second compound 1 µM, first compound 0.1 µM): 116%
viability, T/C (second compound 1 µM, first compound 0.316 µM): 109%
viability, T/C (second compound 1 µM, first compound 1 µM): 103%
viability, T/C (second compound 1 µM, first compound 3.16 µM): 52.3%
viability, T/C (second compound 1 µM, first compound 10 µM): 23.5%
viability, T/C (second compound 3.16 µM, first compound 0.0316 µM): 113%
viability, T/C (second compound 3.16 µM, first compound 0.1 µM): 118%
viability, T/C (second compound 3.16 µM, first compound 0.316 µM): 110%
viability, T/C (second compound 3.16 µM, first compound 1 µM): 104%
viability, T/C (second compound 3.16 µM, first compound 3.16 µM): 60.1%
viability, T/C (second compound 3.16 µM, first compound 10 µM): 44.3%
viability, T/C (second compound 10 µM, first compound 0.0316 µM): 101%
viability, T/C (second compound 10 µM, first compound 0.1 µM): 104%
viability, T/C (second compound 10 µM, first compound 0.316 µM): 106%
viability, T/C (second compound 10 µM, first compound 1 µM): 103%
viability, T/C (second compound 10 µM, first compound 3.16 µM): 63.8%
viability, T/C (second compound 10 µM, first compound 10 µM): 40.6%
